The text below walks through data of patent US12258337B2, “Bicyclic CX3CR1 receptor agonists” (Board of Regents, The University of Texas System, priority 2019, dated 2025).

What all share (type): cell-based
One experiment deals with T1, mCX3CR1 (Mus musculus, UniProt Q9Z0D9).
T1 construct: expressed in transfected cells; stably expresses a Ca2+ sensitive photo-protein
T1 sequence (Q9Z0D9 1-354): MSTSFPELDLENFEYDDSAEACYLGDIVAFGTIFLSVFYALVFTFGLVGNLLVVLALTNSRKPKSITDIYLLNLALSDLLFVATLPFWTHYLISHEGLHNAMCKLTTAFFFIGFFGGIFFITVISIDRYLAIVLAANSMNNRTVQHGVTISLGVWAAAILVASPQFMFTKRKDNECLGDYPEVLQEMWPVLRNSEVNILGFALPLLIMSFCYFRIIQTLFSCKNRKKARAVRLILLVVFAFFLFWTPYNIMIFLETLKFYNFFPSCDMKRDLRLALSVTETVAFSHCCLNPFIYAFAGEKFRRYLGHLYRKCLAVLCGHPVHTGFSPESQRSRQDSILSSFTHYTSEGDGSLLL
Put plainly: Ga16 assay, CX3CR1 agonism, Ca2+ sensitive photo-protein readout (FLIPRTETRA). As to conditions: mouse CX3CR1 cell line. An outline of the steps: (§1)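 Cells expressing human, mouse or rat CX3CR1 with a stably expressed Ca2+-sensitive photoprotein were loaded with 10 μM coelenterazine in tyrode buffer pH 7.4 for 3 h at room temperature. Agonist-mode luminescence kinetics were recorded for 90 s after compound injection on FLIPRTETRA. Dose-response runs were done in quadruplicate, with fractalkine as the reference agonist.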

The target of a further experiment is T2, rCX3CR1 (Rattus norvegicus, UniProt P35411).
T2 construct: expressed in transfected cells; stably expresses a Ca2+ sensitive photo-protein
T2 sequence (P35411 1-354): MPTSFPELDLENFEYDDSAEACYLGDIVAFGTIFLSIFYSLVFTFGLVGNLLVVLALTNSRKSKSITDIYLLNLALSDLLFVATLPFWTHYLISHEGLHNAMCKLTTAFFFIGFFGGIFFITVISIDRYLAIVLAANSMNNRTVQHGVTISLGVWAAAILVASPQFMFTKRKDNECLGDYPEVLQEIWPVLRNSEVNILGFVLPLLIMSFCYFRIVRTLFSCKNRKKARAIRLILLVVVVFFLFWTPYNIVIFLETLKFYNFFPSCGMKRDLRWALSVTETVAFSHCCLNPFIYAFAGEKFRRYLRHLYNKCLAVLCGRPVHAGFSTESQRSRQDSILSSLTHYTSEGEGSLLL
Described as above. The following applies: rat CX3CR1 cell line. An outline of the steps:
as §1

Experiment [1] deals with T3, hCX3CR1 (Homo sapiens, UniProt P49238).
T3 sequence (P49238 1-355): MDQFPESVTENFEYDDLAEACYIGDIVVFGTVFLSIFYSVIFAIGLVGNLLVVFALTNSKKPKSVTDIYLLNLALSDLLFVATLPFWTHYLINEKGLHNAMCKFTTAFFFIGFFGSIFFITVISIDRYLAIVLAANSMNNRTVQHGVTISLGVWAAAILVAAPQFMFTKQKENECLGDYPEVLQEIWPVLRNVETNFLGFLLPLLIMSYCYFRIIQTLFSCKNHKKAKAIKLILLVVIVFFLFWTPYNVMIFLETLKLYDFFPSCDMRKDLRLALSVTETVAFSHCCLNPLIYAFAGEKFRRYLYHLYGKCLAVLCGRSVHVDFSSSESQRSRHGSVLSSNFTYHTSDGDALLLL
Described as above. As to conditions: human CX3CR1 cell line. Further details: expressed in transfected cells; stably expresses a Ca2+ sensitive photo-protein. Put shortly: as §1

Experiment [2] addresses T3, hCX3CR1. Kind of experiment: ChAMPion assay (CHO ChAMPion/CX3CR1 K1.6, cAMP/CNG channel, photoprotein luminescence). Further details: expressed in transfected cells; stably expresses a Ca2+ sensitive photo-protein. As to conditions: ChAMPion assay, CHO ChAMPion/CX3CR1 K1.6, Forskolin 3 μM; read-out: hCX3CR1 agonism EC50. Here is the method:
Buffers and reagents. PBS (D-PBS without calcium and magnesium; EuroClone); Trypsin (Trypsin 0.05%, EDTA 0.02% in PBS; EuroClone); DMSO (Sigma); Tyrode buffer Ca^2+ free: in-house solution (130 mM NaCl, 5 mM KCl, 1 mM MgCl^2, 5 mM NaHCO3, 20 mM HEPES (pH 7.4); sterile filtered and autoclaved); Tyrode buffer 10 mM Ca^2+: in-house solution (130 mM NaCl, 5 mM KCl, 10 mM CaCl2), 1 mM MgCl2, 5 mM NaHCO3, 20 mM HEPES, in water at pH 7.4, sterile filtered); Coelenterazine, native (Biosynth); stock 10 mM; Agonist: Recombinant Human Fractalkine (CX3CL1) (PeproTech); stock: 10 μM in standard Tyrode buffer/BSA 01%; stored at −20° C.
Cell line. The final clone for the hCX3CR1 assay was CHO ChAMPion/CX3CR1 K1.6. ChAMPion technology is based on the co-expression of a Ca^2+ sensitive photoprotein and of a cyclic nucleotide-gated (CNG) channel acting as a cAMP biosensor in a CHO-K1 cell line. CNG channels are non-selective ligand gated cation channels that can be opened by the direct interaction with either cAMP or cGMP, at the intracellular C-terminus site of the channel. Channel opening allows the flux of extracellular calcium into the cell cytoplasm and its transient elevation can be recorded by means of several different calcium indicators. In the chAMPion system, the CNG channel has been modified to display sensitivity to cAMP levels in the physiological range. In addition the calcium influx through the opened channel is immediately detected by the recording of the photoprotein-emitted flash type luminescence signal.
The chAMPion cell line system can monitor the activation of transfected Gαi-coupled receptors, which elicit changes in 3,‘5’-adenosine cyclic monophosphate (cAMP) levels, which in turn is responsible for CNG opening and consequent Ca^2+ influx.
Assay protocol. Experiments were performed in 384 MTP format. Cells were seeded at 10,000 cells/well in 25 μL/well complete growth medium without selection antibiotics in 384-well plates. Twenty-four hours later, cells were assayed for the response to various compounds using the Ca^2+ sensitive photo-protein stably expressed in the cells as readout.
The experiment was performed in a 384-well format according to the following procedure: • 24h after seeding, pre-incubate the cells at room temperature for 1 hour. • Then remove the culture medium. • Load cells with 20 μL/well of Ca^2+ free tyrode buffer+ceolenterazine 5 μM. • Incubate cell plates for 4 hours at RT. • 10 μl/well of 3× concentrated compounds in Ca^2+ free tyrode buffer+Forskolin 9 μM (final Forskolin concentration=3 μM) are applied to the cells (at 10 μl/s). Ten minutes later a second injection is performed: 10 μl/well of Ca^2+ free tyrode buffer+BSA 0.04% (final BSA concentration=0.01%). Twenty minutes later a third injection is performed: 20 μl/well of 10 mM Ca^2+ tyrode buffer (final Ca^2+ concentration was 3.3 mM) and luminescence is recorded for 90 seconds.
Data from FLIPRTETRA measurements are analyzed with the Genedata Screener© software.

As for `O=C(NCC1(CN2CCCC2)Cc2ccccc2C1)c1cc2c(s1)CCCCCC2` [Example 11, N-[[2-(pyrrolidin-1-ylmethyl)-1,3-dihydroinden-2-yl]methyl]-4,5,6,7,8,9-hexahydrocycloocta[b]thiophene-2-carboxamide], the EC50 came to 15.4 µM on mCX3CR1, 19.6 µM on rCX3CR1, 20.5 µM on hCX3CR1 [1] and 6.3 µM at hCX3CR1 [2].
For the compound `CN(CCO)CC1(CNC(=O)c2cc3c(s2)CCCCC3)CCCC1` [Example 34, N-[[1-[[2-hydroxyethyl(methyl)amino]methyl]cyclopentyl]methyl]-5,6,7,8-tetrahydro-4H-cyclohepta[b]thiophene-2-carboxamide], the concentration for a half-maximal effect (EC50) was determined as 46.9 µM on mCX3CR1, 12.9 µM at rCX3CR1, 13.7 µM at hCX3CR1 [1] and 36.5 µM on hCX3CR1 [2].
Turning to `O=C(NCC1(CN2C[C@H]3CCO[C@@H]3C2)CCCC1)c1cc2c(s1)CCCCCC2` [Example 69, N-[[1-[[(3aR,6aS)-2,3,3a,4,6,6a-hexahydrofuro[2,3-c]pyrrol-5-yl]methyl]cyclopentyl]methyl]-4,5,6,7,8,9-hexahydrocycloocta[b]thiophene-2-carboxamide], the EC50 on mCX3CR1 turned out to be 33.6 µM; on rCX3CR1, 20.4 µM; at hCX3CR1 [1], 18 µM; at hCX3CR1 [2], 5.5 µM.
In the case of `CCC(CC)(CNC(=O)c1cc2c(s1)CCCCCC2)CN(C)C` [Example 8, N-[2-[(dimethylamino)methyl]-2-ethylbutyl]-4,5,6,7,8,9-hexahydrocycloocta[b]thiophene-2-carboxamide], the EC50 on mCX3CR1 was found to be 17.1 µM; at rCX3CR1, 20 µM; on hCX3CR1 [1] it was 16.2 µM; on hCX3CR1 [2], 11.2 µM.
On the same counts, the results for `CN(CCO)CC1(CNC(=O)c2cc3c(s2)CCCCCC3)CCCC1` [Example 17, N-[[1-[[2-hydroxyethyl(methyl)amino]methyl]cyclopentyl]methyl]-4,5,6,7,8,9-hexahydrocycloocta[b]thiophene-2-carboxamide] are 18.2 µM, 15.7 µM, 11.8 µM and 1.3 µM.
`CN(C)CC1(CNC(=O)c2cc3c(s2)CCCCCC3)Cc2ccccc2C1` [Example 10, N-[[2-[(dimethylamino)methyl]-1,3-dihydroinden-2-yl]methyl]-4,5,6,7,8,9-hexahydrocycloocta[b]thiophene-2-carboxamide]: the EC50 turned out to be 19.4 µM at mCX3CR1, 18.8 µM on rCX3CR1, 20.5 µM on hCX3CR1 [1] and 12.2 µM on hCX3CR1 [2].
On the same counts, the results for `CC(C)(CNC(=O)c1cc2c(s1)CCCCCCC2)CN1CCCC1` [Example 24, N-(2,2-dimethyl-3-pyrrolidin-1-ylpropyl)-5,6,7,8,9,10-hexahydro-4H-cyclonona[b]thiophene-2-carboxamide] are 50.9 µM, 59.9 µM, 24.6 µM and 10.6 µM.
For `CCN(CC)CC(C)(C)CNC(=O)c1cc2c(s1)CCCCCC2` [Example 16, N-[3-(diethylamino)-2,2-dimethylpropyl]-4,5,6,7,8,9-hexahydrocycloocta[b]thiophene-2-carboxamide] the same measures were 103 µM, 19.7 µM, 13.6 µM and 6.6 µM.
For `CCCN(C)CC1(CNC(=O)c2cc3c(s2)CCCCCC3)CCCC1` [Example 6, N-[[1-[[methyl(propyl)amino]methyl]cyclopentyl]methyl]-4,5,6,7,8,9-hexahydrocycloocta[b]thiophene-2-carboxamide] the same measures were 18.1 µM, 14.6 µM, 15.1 µM and 4.5 µM.
Consider `CN(CCO)CC1(CNC(=O)c2cc3c(s2)CCCCCCC3)CCCC1` [Example 29, N-[[1-[[2-hydroxyethyl(methyl)amino]methyl]cyclopentyl]methyl]-5,6,7,8,9,10-hexahydro-4H-cyclonona[b]thiophene-2-carboxamide], for which the EC50 on mCX3CR1 came to 46.3 µM; on rCX3CR1, 47 µM; on hCX3CR1 [1], 18.7 µM; on hCX3CR1 [2] it was 4.8 µM.
Turning to `O=C(NCC1(CN2CCCC2)CC1)c1cc2c(s1)CCCCCC2` [Example 4, N-[[1-(pyrrolidin-1-ylmethyl)cyclopropyl]methyl]-4,5,6,7,8,9-hexahydrocycloocta[b]thiophene-2-carboxamide], the EC50 at mCX3CR1 is 16.2 µM; on rCX3CR1 it was 15.4 µM; on hCX3CR1 [1], 14.6 µM; on hCX3CR1 [2], 2.8 µM.
On the same counts, the results for `CN(C)CC(C)(C)CN(C)C(=O)c1cc2c(s1)CCCCCC2` [Example 7, N-[3-(dimethylamino)-2,2-dimethylpropyl]-N-methyl-4,5,6,7,8,9-hexahydrocycloocta[b]thiophene-2-carboxamide] are 26.1 µM, 44.5 µM, 15.7 µM and 9.9 µM.
On the same counts, the results for `CN(C)CC1(CNC(=O)c2ccc3c(c2)CCCCCC3)CCCC1` [Example 33, N-[[1-[(dimethylamino)methyl]cyclopentyl]methyl]-5,6,7,8,9,10-hexahydrobenzo[8]annulene-3-carboxamide] are 44.4 µM, 22.7 µM, 17.4 µM and 4 µM.
For `CCN(CC)CC1(CNC(=O)c2cc3c(s2)CCCCCC3)CCCC1` [Example 12, N-[[1-(diethylaminomethyl)cyclopentyl]methyl]-4,5,6,7,8,9-hexahydrocycloocta[b]thiophene-2-carboxamide] the same measures were 9.1 µM, 12.2 µM, 13.3 µM and 6.2 µM.

In general, EC50 refers to the midpoint of the concentration-response curve.
